Results reported in ChEMBL document CHEMBL5241132, “Design, synthesis and in vitro biological evaluation of 2-aminopyridine derivatives as novel PI3Kδ inhibitors for hematological cancer” (Bioorg Med Chem Lett, 2023).

Columns and labels:
[1] = target: T1, Phosphatidylinositol 4,5-bisphosphate 3-kinase catalytic subunit delta isoform (Homo sapiens, UniProt O00329); assay: Inhibition of PI3Kdelta (unknown origin) by ADP Glo luminescent assay
T1 sequence (O00329 whole entry): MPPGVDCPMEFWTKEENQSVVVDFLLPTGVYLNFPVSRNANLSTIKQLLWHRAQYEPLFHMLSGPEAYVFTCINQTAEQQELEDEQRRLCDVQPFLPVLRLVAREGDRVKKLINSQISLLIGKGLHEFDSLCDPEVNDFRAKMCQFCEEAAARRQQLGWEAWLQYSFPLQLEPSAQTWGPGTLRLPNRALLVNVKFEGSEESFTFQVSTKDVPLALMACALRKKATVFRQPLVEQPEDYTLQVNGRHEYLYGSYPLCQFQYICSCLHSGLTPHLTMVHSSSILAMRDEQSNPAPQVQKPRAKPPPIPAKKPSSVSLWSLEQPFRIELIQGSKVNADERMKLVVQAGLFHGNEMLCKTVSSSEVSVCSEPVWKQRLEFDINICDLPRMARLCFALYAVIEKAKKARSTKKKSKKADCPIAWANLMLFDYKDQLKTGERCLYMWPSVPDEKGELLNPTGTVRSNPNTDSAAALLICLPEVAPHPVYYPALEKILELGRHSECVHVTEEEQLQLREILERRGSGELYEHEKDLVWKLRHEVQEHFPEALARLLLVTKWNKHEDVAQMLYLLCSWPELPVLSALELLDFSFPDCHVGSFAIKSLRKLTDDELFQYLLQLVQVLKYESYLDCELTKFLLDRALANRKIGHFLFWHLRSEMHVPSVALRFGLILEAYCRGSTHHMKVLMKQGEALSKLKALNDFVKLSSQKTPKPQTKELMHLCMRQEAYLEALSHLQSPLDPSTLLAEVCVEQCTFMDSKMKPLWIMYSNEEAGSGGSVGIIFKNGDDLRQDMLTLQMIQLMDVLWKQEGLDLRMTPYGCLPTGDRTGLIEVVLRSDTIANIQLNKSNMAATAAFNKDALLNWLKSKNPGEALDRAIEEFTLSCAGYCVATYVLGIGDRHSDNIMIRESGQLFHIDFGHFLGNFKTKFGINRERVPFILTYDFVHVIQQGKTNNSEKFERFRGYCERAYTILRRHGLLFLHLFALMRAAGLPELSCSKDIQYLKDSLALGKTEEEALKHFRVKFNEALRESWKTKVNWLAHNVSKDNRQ

MV4-11 [2] = assay: Induction of apoptosis in human MV4-11 cells assessed as viable cells at 1 uM incubated for 48 hrs by Annexin V/PI staining based flow cytometric analysis (reference value: […]); assay type: functional; settings: read-out: Activity
Homo sapiens [3] = species on record: Homo sapiens; assay: Selectivity index, ratio of IC50 for inhibition of PI3Kgamma (unknown origin) to IC50 for inhibition of PI3Kdelta (unknown origin) by ADP Glo luminescent assay
MV4-11 [4] = assay: Antiproliferative activity against human MV4-11 cells assessed as inhibition of cell growth; assay type: functional, cell-based
MV4-11 [5] = assay: Induction of apoptosis in human MV4-11 cells assessed as viable cells at 3 uM incubated for 48 hrs by Annexin V/PI staining based flow cytometric analysis (reference value: […]); assay type: functional; settings: read-out: Activity
[6] = target: Serine/threonine-protein kinase AKT (Homo sapiens) (UniProt P31751+Q9Y243+P31749); assay: Inhibition of AKT phosphorylation in human MV4-11 cells incubated for 4 hrs by Western blot analysis; assay type: cell-based; settings: dose 1-10 µM
Serine/threonine-protein kinase AKT (Homo sapiens), sequence (P31749 whole entry, looked up, canonical isoform): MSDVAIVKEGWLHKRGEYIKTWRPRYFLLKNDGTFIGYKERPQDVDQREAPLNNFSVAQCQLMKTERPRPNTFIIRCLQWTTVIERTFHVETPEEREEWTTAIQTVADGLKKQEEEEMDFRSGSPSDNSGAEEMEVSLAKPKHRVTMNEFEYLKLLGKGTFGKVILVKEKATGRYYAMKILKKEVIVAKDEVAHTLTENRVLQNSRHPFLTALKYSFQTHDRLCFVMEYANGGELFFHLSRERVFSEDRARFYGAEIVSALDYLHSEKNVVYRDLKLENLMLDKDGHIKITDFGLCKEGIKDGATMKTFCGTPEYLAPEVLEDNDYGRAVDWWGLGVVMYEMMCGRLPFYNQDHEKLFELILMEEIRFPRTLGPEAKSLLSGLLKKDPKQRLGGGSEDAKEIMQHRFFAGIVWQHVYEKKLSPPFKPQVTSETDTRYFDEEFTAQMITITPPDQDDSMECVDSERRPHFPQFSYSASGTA
Serine/threonine-protein kinase AKT (Homo sapiens), sequence (P31751 whole entry, looked up, canonical isoform): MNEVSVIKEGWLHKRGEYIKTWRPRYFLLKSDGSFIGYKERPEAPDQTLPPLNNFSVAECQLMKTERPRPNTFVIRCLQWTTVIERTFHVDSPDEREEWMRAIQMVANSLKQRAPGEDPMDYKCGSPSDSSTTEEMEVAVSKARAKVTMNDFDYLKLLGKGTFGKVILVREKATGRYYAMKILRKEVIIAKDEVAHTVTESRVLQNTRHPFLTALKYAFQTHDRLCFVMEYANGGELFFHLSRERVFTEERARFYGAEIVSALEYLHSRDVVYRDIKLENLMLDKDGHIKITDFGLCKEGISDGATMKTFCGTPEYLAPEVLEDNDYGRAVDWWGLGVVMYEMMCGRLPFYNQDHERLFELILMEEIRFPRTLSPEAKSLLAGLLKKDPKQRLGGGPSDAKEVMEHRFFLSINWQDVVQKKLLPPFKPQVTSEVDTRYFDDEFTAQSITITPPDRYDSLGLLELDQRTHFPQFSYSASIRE
Serine/threonine-protein kinase AKT (Homo sapiens), sequence (Q9Y243 whole entry, looked up, canonical isoform): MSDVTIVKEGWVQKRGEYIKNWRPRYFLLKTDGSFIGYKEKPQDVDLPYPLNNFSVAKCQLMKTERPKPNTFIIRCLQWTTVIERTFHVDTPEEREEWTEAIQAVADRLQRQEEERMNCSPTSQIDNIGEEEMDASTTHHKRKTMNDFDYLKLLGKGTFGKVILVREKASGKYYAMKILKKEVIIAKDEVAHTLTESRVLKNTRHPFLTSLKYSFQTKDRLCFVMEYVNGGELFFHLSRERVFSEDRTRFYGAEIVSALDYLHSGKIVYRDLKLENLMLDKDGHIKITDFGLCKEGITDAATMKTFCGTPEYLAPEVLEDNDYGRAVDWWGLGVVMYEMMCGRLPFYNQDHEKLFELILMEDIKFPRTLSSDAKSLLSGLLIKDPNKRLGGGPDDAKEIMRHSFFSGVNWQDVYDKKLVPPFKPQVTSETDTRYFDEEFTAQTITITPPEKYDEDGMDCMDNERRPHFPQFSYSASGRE

[7] = target: Phosphatidylinositol 4,5-bisphosphate 3-kinase catalytic subunit beta isoform (Homo sapiens, UniProt P42338); assay: Inhibition of PI3Kbeta (unknown origin)
Phosphatidylinositol 4,5-bisphosphate 3-kinase catalytic subunit beta isoform, sequence (P42338 whole entry, canonical isoform): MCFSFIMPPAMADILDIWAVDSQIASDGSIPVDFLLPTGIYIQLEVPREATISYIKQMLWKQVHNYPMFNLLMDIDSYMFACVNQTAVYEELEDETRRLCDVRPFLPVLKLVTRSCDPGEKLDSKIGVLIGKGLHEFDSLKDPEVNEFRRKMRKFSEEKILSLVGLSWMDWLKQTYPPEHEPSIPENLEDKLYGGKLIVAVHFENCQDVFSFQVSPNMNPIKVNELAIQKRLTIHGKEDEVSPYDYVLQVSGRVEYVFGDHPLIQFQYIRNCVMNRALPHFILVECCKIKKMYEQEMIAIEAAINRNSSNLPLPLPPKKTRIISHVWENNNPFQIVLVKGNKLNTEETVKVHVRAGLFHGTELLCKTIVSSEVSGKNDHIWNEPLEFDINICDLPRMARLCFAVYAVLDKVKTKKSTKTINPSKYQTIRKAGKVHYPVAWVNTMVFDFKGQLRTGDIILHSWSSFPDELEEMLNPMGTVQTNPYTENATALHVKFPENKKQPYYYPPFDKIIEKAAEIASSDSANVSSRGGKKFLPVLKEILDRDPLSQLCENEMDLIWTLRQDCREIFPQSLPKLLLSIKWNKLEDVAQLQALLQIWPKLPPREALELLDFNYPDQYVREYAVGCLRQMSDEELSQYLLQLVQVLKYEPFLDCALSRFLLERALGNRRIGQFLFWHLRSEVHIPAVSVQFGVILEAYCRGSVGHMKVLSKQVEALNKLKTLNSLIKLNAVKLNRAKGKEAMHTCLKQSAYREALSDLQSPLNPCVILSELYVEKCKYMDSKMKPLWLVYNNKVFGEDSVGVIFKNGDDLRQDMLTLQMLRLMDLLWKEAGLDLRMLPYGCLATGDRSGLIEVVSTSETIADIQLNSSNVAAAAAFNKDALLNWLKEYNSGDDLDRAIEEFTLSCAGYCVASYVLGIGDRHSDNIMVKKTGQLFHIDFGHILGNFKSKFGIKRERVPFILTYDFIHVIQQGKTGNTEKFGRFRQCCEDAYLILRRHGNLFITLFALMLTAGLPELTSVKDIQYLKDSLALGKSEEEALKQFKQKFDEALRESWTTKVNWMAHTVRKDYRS

MV4-11 [8] = assay: Induction of apoptosis in human MV4-11 cells assessed as late apoptotic cells at 5 uM incubated for 48 hrs by Annexin V/PI staining based flow cytometric analysis (reference value: 2.82%); assay type: functional
MV4-11 [9] = assay: Induction of apoptosis in human MV4-11 cells assessed as late apoptotic cells at 3 uM incubated for 48 hrs by Annexin V/PI staining based flow cytometric analysis (reference value: 2.82%); assay type: functional
MV4-11 [10] = assay: Induction of apoptosis in human MV4-11 cells assessed as early apoptotic cells at 5 uM incubated for 48 hrs by Annexin V/PI staining based flow cytometric analysis (reference value: 1.57%); assay type: functional
MV4-11 [11] = assay: Induction of apoptosis in human MV4-11 cells assessed as early apoptotic cells at 3 uM incubated for 48 hrs by Annexin V/PI staining based flow cytometric analysis (reference value: 1.57%); assay type: functional
MV4-11 [12] = assay: Cell cycle arrest in human MV4-11 cells assessed as accumulation of cells at G2/M phase incubated for 24 hrs by flow cytometric analysis; assay type: functional, cell-based; settings: dose 1-10 µM
MV4-11 [13] = assay: Induction of apoptosis in human MV4-11 cells assessed as late apoptotic cells at 1 uM incubated for 48 hrs by Annexin V/PI staining based flow cytometric analysis (reference value: 2.82%); assay type: functional
MV4-11 [14] = assay: Induction of apoptosis in human MV4-11 cells assessed as viable cells at 5 uM incubated for 48 hrs by Annexin V/PI staining based flow cytometric analysis (reference value: […]); assay type: functional; settings: read-out: Activity
[15] = target: Phosphatidylinositol 4,5-bisphosphate 3-kinase catalytic subunit gamma isoform (Homo sapiens, UniProt P48736); assay: Inhibition of PI3Kgamma (unknown origin)
Phosphatidylinositol 4,5-bisphosphate 3-kinase catalytic subunit gamma isoform, sequence (P48736 whole entry, canonical isoform): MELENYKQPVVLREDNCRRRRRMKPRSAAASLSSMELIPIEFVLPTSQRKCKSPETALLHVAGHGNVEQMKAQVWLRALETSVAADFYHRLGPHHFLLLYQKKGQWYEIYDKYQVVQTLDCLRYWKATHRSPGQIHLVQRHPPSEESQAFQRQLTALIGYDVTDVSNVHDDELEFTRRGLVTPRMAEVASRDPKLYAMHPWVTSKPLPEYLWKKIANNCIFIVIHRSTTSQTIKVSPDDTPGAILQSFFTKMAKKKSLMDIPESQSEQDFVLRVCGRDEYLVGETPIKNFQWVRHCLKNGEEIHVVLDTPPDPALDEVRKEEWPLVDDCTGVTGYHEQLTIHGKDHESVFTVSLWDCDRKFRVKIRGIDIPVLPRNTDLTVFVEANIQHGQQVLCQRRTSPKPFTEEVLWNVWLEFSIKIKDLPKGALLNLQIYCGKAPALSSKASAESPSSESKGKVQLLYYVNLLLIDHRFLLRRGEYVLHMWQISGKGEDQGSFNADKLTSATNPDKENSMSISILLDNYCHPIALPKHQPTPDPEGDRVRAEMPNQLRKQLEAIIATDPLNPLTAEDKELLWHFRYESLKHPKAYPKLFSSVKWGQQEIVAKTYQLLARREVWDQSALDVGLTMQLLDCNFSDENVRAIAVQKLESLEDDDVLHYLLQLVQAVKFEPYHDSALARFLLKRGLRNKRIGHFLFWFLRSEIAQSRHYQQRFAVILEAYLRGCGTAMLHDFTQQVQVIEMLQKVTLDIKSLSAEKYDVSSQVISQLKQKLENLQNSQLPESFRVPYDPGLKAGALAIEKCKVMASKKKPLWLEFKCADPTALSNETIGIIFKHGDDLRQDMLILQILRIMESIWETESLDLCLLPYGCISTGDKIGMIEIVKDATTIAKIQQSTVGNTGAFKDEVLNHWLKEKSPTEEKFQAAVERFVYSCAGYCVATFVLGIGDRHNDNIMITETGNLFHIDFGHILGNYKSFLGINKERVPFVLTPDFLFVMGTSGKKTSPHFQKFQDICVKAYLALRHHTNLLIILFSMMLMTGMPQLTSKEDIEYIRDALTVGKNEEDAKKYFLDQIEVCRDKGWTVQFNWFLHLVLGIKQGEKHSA

[16] = target: Phosphatidylinositol 4,5-bisphosphate 3-kinase catalytic subunit alpha isoform (Homo sapiens, UniProt P42336); assay: Inhibition of PI3Kalpha (unknown origin)
Phosphatidylinositol 4,5-bisphosphate 3-kinase catalytic subunit alpha isoform, sequence (P42336 whole entry, canonical isoform): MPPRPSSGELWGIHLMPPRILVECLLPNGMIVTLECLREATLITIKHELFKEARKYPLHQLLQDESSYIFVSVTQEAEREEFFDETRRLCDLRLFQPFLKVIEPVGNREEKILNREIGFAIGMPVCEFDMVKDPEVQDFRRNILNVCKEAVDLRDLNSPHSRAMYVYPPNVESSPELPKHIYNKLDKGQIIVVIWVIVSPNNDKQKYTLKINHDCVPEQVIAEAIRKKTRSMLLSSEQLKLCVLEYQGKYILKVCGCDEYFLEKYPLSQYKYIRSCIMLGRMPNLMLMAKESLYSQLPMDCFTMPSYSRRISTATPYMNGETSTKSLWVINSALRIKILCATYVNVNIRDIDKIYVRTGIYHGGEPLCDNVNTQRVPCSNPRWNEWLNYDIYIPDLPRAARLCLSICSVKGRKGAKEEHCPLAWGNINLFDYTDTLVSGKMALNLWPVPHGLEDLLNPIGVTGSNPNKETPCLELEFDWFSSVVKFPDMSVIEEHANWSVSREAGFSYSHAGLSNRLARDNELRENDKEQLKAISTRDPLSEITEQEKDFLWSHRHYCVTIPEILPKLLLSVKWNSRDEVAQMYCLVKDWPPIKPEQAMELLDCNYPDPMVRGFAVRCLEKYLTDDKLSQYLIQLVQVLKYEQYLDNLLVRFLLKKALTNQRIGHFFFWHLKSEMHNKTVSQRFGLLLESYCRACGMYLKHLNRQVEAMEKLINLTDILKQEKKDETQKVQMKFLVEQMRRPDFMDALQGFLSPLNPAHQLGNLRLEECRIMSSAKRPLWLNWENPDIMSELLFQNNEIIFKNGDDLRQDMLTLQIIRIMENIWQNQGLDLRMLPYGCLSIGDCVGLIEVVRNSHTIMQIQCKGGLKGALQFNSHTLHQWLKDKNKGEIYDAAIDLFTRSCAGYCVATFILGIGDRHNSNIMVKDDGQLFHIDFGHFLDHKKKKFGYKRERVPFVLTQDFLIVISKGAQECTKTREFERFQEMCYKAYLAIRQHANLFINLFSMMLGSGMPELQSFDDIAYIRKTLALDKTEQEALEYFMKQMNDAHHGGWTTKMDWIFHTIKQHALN

Homo sapiens [17] = species on record: Homo sapiens; assay: Selectivity index, ratio of IC50 for inhibition of PI3Kbeta (unknown origin) to IC50 for inhibition of PI3Kdelta (unknown origin) by ADP Glo luminescent assay
KG-1 = assay: Antiproliferative activity against human KG-1 cells assessed as inhibition of cell growth; assay type: functional, cell-based
MV4-11 [18] = assay: Induction of apoptosis in human MV4-11 cells assessed as viable cells at 10 uM incubated for 48 hrs by Annexin V/PI staining based flow cytometric analysis (reference value: […]); assay type: functional; settings: read-out: Activity
HL-60 = assay: Antiproliferative activity against human HL-60 cells assessed as inhibition of cell growth; assay type: functional, cell-based
Homo sapiens [19] = species on record: Homo sapiens; assay: Selectivity index, ratio of IC50 for inhibition of PI3Kalpha (unknown origin) to IC50 for inhibition of PI3Kdelta (unknown origin) by ADP Glo luminescent assay
[20] = Antiproliferative activity against human MOLM16 cells assessed as inhibition of cell growth; assay type: functional, cell-based, MOLM-16
MV4-11 [21] = assay: Induction of apoptosis in human MV4-11 cells assessed as early apoptotic cells at 1 uM incubated for 48 hrs by Annexin V/PI staining based flow cytometric analysis (reference value: 1.57%); assay type: functional
MV4-11 [22] = assay: Induction of apoptosis in human MV4-11 cells assessed as early apoptotic cells at 10 uM incubated for 48 hrs by Annexin V/PI staining based flow cytometric analysis (reference value: 1.57%); assay type: functional
MV4-11 [23] = assay: Induction of apoptosis in human MV4-11 cells assessed as necrotic cells at 1 uM incubated for 48 hrs by Annexin V/PI staining based flow cytometric analysis (reference value: 0.060%); assay type: functional
MV4-11 [24] = assay: Induction of apoptosis in human MV4-11 cells assessed as necrotic cells at 3 uM incubated for 48 hrs by Annexin V/PI staining based flow cytometric analysis (reference value: 0.060%); assay type: functional
EOL1 = assay: Antiproliferative activity against human EOL1 cells assessed as inhibition of cell growth; assay type: functional, cell-based
MV4-11 [25] = assay: Induction of apoptosis in human MV4-11 cells assessed as necrotic cells at 10 uM incubated for 48 hrs by Annexin V/PI staining based flow cytometric analysis (reference value: 0.060%); assay type: functional
MV4-11 [26] = assay: Induction of apoptosis in human MV4-11 cells assessed as total apoptotic cells at 1 to 10 uM incubated for 48 hrs by Annexin V/PI staining based flow cytometric analysis (reference value: 4.39%); assay type: functional; settings: dose 1-10 µM
MV4-11 [27] = assay: Induction of apoptosis in human MV4-11 cells assessed as necrotic cells at 5 uM incubated for 48 hrs by Annexin V/PI staining based flow cytometric analysis (reference value: 0.060%); assay type: functional
MV4-11 [28] = assay: Induction of apoptosis in human MV4-11 cells assessed as late apoptotic cells at 10 uM incubated for 48 hrs by Annexin V/PI staining based flow cytometric analysis (reference value: 2.82%); assay type: functional

CCCC(=O)Nc1ccc(-c2cnc(Cl)c(NS(=O)(=O)c3ccccc3)c2)cn1
IC50 [1]: 0.046 µM

COCCNC(=O)Nc1ccc(-c2cnc(Cl)c(NS(=O)(=O)c3ccccc3)c2)cn1
viability at 1 µM (MV4-11 [2]): 96%
Ratio IC50 (Homo sapiens [3]): 8
IC50 (MV4-11 [4]): 3.7 µM
IC50 [1]: 0.03 µM
viability at 3 µM (MV4-11 [5]): 94%
inhibition [6]: Dose-Dependent Effect
IC50 [7]: 0.295 µM
Activity (MV4-11 [8]): 10.9%
Activity (MV4-11 [9]): 4.18%
Activity (MV4-11 [10]): 1.92%
Activity (MV4-11 [11]): 1.47%
Activity (MV4-11 [12]): Dose-Dependent Effect
Activity (MV4-11 [13]): 2.65%
viability at 5 µM (MV4-11 [14]): 85.5%
IC50 [15]: 0.243 µM
IC50 [16]: 0.288 µM
Ratio IC50 (Homo sapiens [17]): 8
IC50 (KG-1): 18.9 µM
viability at 10 µM (MV4-11 [18]): 57.4%
IC50 (HL-60): 8.7 µM
Ratio IC50 (Homo sapiens [19]): 8
IC50 [20]: 2.6 µM
Activity (MV4-11 [21]): 1.2%
Activity (MV4-11 [22]): 3.21%
Activity (MV4-11 [23]): 0.1%
Activity (MV4-11 [24]): 0.335%
IC50 (EOL1): 15.9 µM
Activity (MV4-11 [25]): 11.3%
Activity (MV4-11 [26]): 3.85%
Activity (MV4-11 [27]): 1.69%
Activity (MV4-11 [28]): 28.1%

Nc1ccc(-c2cnc(Cl)c(F)c2)cn1
IC50 [1]: > 50 µM

Nc1ccc(-c2cnc(Cl)c(NS(=O)(=O)c3ccc(F)cc3F)c2)cn1
IC50 [1]: 0.067 µM

Nc1ccc(-c2cnc(Cl)c(C(F)(F)F)c2)cn1
IC50 [1]: 46.6 µM

Nc1ccc(-c2ccc(Cl)nc2)cn1
IC50 [1]: 47.5 µM

COc1ncc(-c2ccc(N)nc2)cc1N
IC50 [1]: > 50 µM

N#Cc1cc(-c2ccc(N)nc2)cnc1Cl
IC50 [1]: > 50 µM

Cc1ccc(S(=O)(=O)Nc2cc(-c3ccc(N)nc3)cnc2Cl)cc1
IC50 [1]: 0.041 µM

Nc1ccc(-c2cnc(Cl)c(NS(=O)(=O)c3ccc(F)cc3)c2)cn1
IC50 [1]: 0.098 µM

Nc1cncc(-c2ccc(N)nc2)c1
IC50 [1]: > 50 µM

CC(C)(C)c1ccc(S(=O)(=O)Nc2cc(-c3ccc(N)nc3)cnc2Cl)cc1
IC50 [1]: 0.031 µM

CCOc1ncc(-c2ccc(N)nc2)cc1N
IC50 [1]: > 50 µM

Nc1ccc(-c2cnc(Cl)c(NS(=O)(=O)c3ccccc3)c2)cn1
IC50 [1]: 0.052 µM

Cc1ncc(-c2ccc(N)nc2)cc1N
IC50 [1]: > 50 µM

CCC(=O)Nc1ccc(-c2cnc(Cl)c(NS(=O)(=O)c3ccccc3)c2)cn1
IC50 [1]: 0.049 µM

Nc1ccc(-c2cnc(Cl)c(N)c2)cn1
IC50 [1]: 32.5 µM

Nc1ccc(-c2cnc(N)c(N)c2)cn1
IC50 [1]: > 50 µM

Oc1cccc(-c2nc(N3CCOCC3)c3oc4ncccc4c3n2)c1 [PI-103]
IC50 (MV4-11 [4]): 0.054 µM
IC50 (KG-1): 0.088 µM
IC50 (HL-60): 0.089 µM
IC50 [20]: 0.058 µM
IC50 (EOL1): 1.6 µM

CC[C@H](Nc1ncnc2[nH]cnc12)c1nc2cccc(F)c2c(=O)n1-c1ccccc1 [IDELALISIB]
IC50 (MV4-11 [4]): 4.3 µM
IC50 (KG-1): 15.2 µM
IC50 (HL-60): 0.48 µM
IC50 [20]: 13.3 µM
IC50 (EOL1): > 50 µM

N#Cc1ncc(-c2ccc(N)nc2)cc1N
IC50 [1]: 33.5 µM

CN(c1cc(-c2ccc(N)nc2)cnc1Cl)S(=O)(=O)c1ccccc1
IC50 [1]: 11.3 µM

CC(=O)Nc1ccc(-c2cnc(Cl)c(NS(=O)(=O)c3ccccc3)c2)cn1
IC50 [1]: 0.048 µM

CCNC(=O)Nc1ccc(-c2cnc(Cl)c(NS(=O)(=O)c3ccccc3)c2)cn1
IC50 [1]: 0.104 µM
IC50 [7]: 0.235 µM
IC50 [15]: 0.18 µM
IC50 [16]: 0.412 µM

Nc1ccc(-c2cnc(F)c(N)c2)cn1
IC50 [1]: > 50 µM
